# Experiments:
# [1] = test system: 3LL pulmonary metastatic tumors; test: 3LL pulmonary metastasis model, vaccination with survivin; type: in vivo, mice; conditions: single subcutaneous vaccination day 6 with SVN 50 μg plus adjuvant; lungs day 27
# Method: For the pulmonary tumor model, 2×10^5 live 3LL cells were injected intravenously into the tail vein of mice. Mice were vaccinated subcutaneously either once on day 6 or twice on days 6 and 13 post-tumor challenge with various vaccine formulations containing survivin (SVN) protein (50 μg) alone as control or with SA-4-1BBL (25 μg), MPL (25 gig), or the combination of both agents (25 μg/agent). Mice were euthanized 27 days post-tumor challenge for analysis of lung tumor burden as described (12, 18).
# [2] = test system: TC-1 tumors; test: Therapeutic vaccination in the established TC-1 tumor model; type: in vivo, C57BL/6 mice; conditions: single subcutaneous vaccination day 6 post-tumor challenge, E7 protein 50 μg plus adjuvant 25 μg/agent; 90 days observation
# From the text: (§1) C57BL/6 mice were challenged subcutaneously with 1×10^5 live TC-1 cells into the right flank.
# [3] = test system: TC-1 tumors; test: TC-1 tumor model with antibody depletion of CD8+ or CD4+ T cells before vaccination; type: in vivo, mice; conditions: E7 + MPL
# Method: as §1
# To test if a high CD8^+ Teff/Treg cell ratio can serve as a predictor of vaccine therapeutic efficacy, we used antibodies against CD8 and CD4 molecules to deplete CD8^+ Teff and Treg cells, respectively. Mice with established TC-1 tumors were treated with depleting antibodies one day before vaccination with E7 protein admixed with SA-4-1BBL/MPL or MPL as monotherapy.
# [4] = test system: TC-1 target cells; test: Cytotoxicity assay; type: cell-based, mice; conditions: splenocytes one week post-vaccination, 5 days E749-57 + IL-2, effectors against TC-1 for 4 hrs
# Method: Mice with ˜3-4 mm TC-1 tumors in diameter were vaccinated subcutaneously with vaccine formulations containing E7 protein (50 μg) alone or with SA-4-1BBL (25 μg), MPL (25 μg), or the combination of both agents (25 μg/agent). One week post-vaccination, splenocytes were cultured with 10 μg of E749-57 peptide/mL in complete MLR medium supplemented with 50 IU/mL of IL-2. Viable lymphocytes were harvested 5 days later using a Ficoll gradient and used as effectors at various ratios against TC-1 target cells for 4 hrs as described (41).
# [5] = test system: intratumoral CD8^+ T cells and CD4^+Foxp3^+ Treg cells in TC-1 tumor; test: Intratumoral CD8+ T cells and CD4+Foxp3+ Treg cells by confocal microscopy; type: in vivo, mice; conditions: one week post-vaccination
# Method: (§2) Spleens and/or tumor draining lymph nodes (TdLNs) were processed as described previously (7). For memory T cell typing, lymphocytes were stained with anti-CD8-APC-Cy7, anti-CD62L-FITC, and anti-CD44-APC antibodies. For intracellular cytokine staining, lymphocytes (1×10^6 cells/mL) were stimulated either with 10 μg/mL E749-57 peptide for 2 hrs followed by incubation with GolgiPlug (1 μl/mL, BD PharMingen) overnight or with phorbol 12-myristate 13-acetate (PMA) (5 ng/ml, Sigma) and ionomycin (500 ng/ml, Sigma) for 2 hrs followed by incubation with GolgiPlug (1 μl/ml) for an additional 4 hrs. Cells were first stained with anti-CD44-APC and anti-CD8-APC-Cy7, fixed with 4% paraformaldehyde, and then stained with anti-IFN-γ-PE-Cy7, anti-IL-2-Percp-Cy5.5, anti-TNF-PE, or isotype controls followed by acquisition and analysis as previously reported (12). Intratumoral CD8^+ T cells and CD4^+Foxp3^+ Treg cells were analyzed using confocal microscopy as described (12).
# Mice bearing ˜3-4 mm TC-1 tumor were vaccinated subcutaneously with various vaccine formulations. One week post-vaccination, tumors were harvested and analyzed for the presence of intratumoral CD8^+ T cells and CD4^+FoxP3^+ Treg cells using confocal microscopy. […] (FIG. 3A, B).
# [6] = test system: E749-57 peptide-specific CD8^+ T cells; test: Primary CD8+ T cell intracellular IFN-γ response of tumor draining lymphocytes; type: in vivo, mice; conditions: one week post-vaccination
# Method: as §2
substance,measurement,setting,value
3-O-desacyl-4′-monophosphoryl lipid A [MPL],control of tumor growth (lung weight and presence of tumor nodules),[1],statistically significant (P<0.05) effect in controlling tumor growth
same,"eradication of established TC-1 tumors, mice tumor-free",[2],50%
same,therapeutic efficacy,[3]; depletion of CD4+ T cells including Treg cells one day before vaccination,100%
same,therapeutic efficacy,[3]; without depletion,50%
same,TC-1 killing response,[4],failed to do so
same,intratumoral Teff/Treg cell ratio,[5]; TC-1 tumor,no effect
same,number of intratumoral CD8+ T cells infiltration,[5]; TC-1 tumor,moderate effect
same,number of intratumoral Treg cells,"[5]; ~3-4 mm TC-1 tumor, versus PBS controls or E7 protein alone",did not have detectable effect
same,E7 TAA-specific CD8+ T cell IFN-γ response (primary),[6],failed to do so
